Measurements as given in patent publication US7790885B2, “Process for preparing phenoxypyridine derivatives” (Eisai R&D Management Co., Ltd., priority 2006, dated 2010).

Assays:
[1] = test system: Human gastric cancer cells (MKN-45); assay: Inhibitory activity against the proliferation of human gastric cancer cells (MKN-45); assay type: cell-based; conditions: 72 h, read-out: IC50 (concentration necessary to inhibit the cell proliferation by 50%), MKN-45 cells, 1% FBS-containing RPMI1640, 3 days, Cell Counting Kit-8
Description: Human gastric cancer cells (MKN-45) were suspended in a 1% FBS-containing RPMI1640 medium (purchased from Sigma). The cell suspension (1×10^4 cells/ml) was added in a 96-well plate for cell culture (purchased from NUNC, Production No. 167008) at 0.1 ml/well, and then cultured in a 5% CO2 incubator (37° C.) overnight. After the culture, each well was supplied with 0.1 ml of a test substance diluted with a 1% FBS-containing RPMI1640 medium, followed by culturing in a 5% CO2 incubator (37° C.) for 3 days. After the culture, each well was supplied with 10 μl of Cell Counting Kit-8 (purchased from DOJINDO, Production No. 343-07623), followed by incubation in a 5% CO2 incubator (37° C.) for about 1.5 hrs. After the incubation, using the Plate Reader MTP-500 (Corona Electric), the absorbance of each well was determined at a measurement wavelength of 450 nm and a reference wavelength of 660 nm.

HGFR [2] = molecular target: T1, HGFR (Homo sapiens, UniProt P08581); assay: Inhibitory activity against HGFR tyrosine kinase activity (HTRF); assay type: biochemical; set-up: His6-HGFR, the HGFR cytoplasmic domain fused with six histidine at the N terminus; made in house; host or cells: Sf9 insect cells (baculovirus, pFastBac-HT); conditions: His6-HGFR cytoplasmic domain, biotin-poly(GT) substrate, ATP, 30° C. for 10 min
Description: The DNA fragment was isolated from the human placental cDNA library (purchased from Clontech) by PCR (TaKaRa Ex Taq™ Kit, purchased from TaKaRa) using two kinds of primers (SEQ ID NO: 1,5′-[…]-3′ and SEQ ID NO: 2,5′-[…]-3′, purchased from Invitrogen). The DNA fragment was cloned into a baculovirus transplace vector (pFastBac™-HT (purchased from GIBCO BRL)) to produce a recombinant construct. […] EGFR was purchased from Sigma (Production No. E-2645).
To the suspension of Sf9 cells (3×10^8 cells) in SF-900II medium (purchased from Invitrogen) containing 2% FBS was added a solution of HGFR transfected baculovirus above (4 ml), followed by a shaking culture at 27° C. for 48 hrs. The cells infected with the HGFR transfected baculovirus were centrifuged at 1,000 rpm, 4° C. for 5 min to remove the supernatant. The precipitated infected cells were suspended in 80 ml of ice-cold PBS, and centrifuged at 1,000 rpm, 4° C. for 5 min to remove the supernatant. The precipitated infected cells were suspended in 40 ml of ice-cold Lysis Buffer (50 mM Tris-HCl (pH 8.5), 5 mM 2-mercaptoethanol, 100 mM KCl, 1 mM PMSF and 1% (v/v) NP-40). The suspension was centrifuged at 12,000 rpm, 4° C. for 30 min to provide a supernatant.
The supernatant was loaded onto an Ni-NTA agarose column (3 ml, purchased from Qiagen) equilibrated with 30 ml of Buffer A (20 mM Tris-HCl (pH 8.5), 5 mM 2-mercaptoethanol, 500 mM KCl, 20 mM imidazole and 10% (v/v) glycerol). The column was washed with 30 ml of Buffer A, 6 ml of Buffer B (20 mM Tris-HCl (pH 8.5), 5 mM 2-mercaptoethanol, 1 M KCl, and 10% (v/v) glycerol) and 6 ml of Buffer A in this order. Then, the column was eluted with 6 ml of Buffer C (20 mM Tris-HCl (pH 8.5), 5 mM 2-mercaptoethanol, 100 mM KCl, 100 mM imidazole, and 10% (v/v) glycerol) to provide a fraction. The fraction was entrapped in a dialysis membrane (purchased from Spectrum Laboratories), dialyzed at 4° C. overnight with 1 L of dialysis buffer (20 mM Tris-HCl (pH 7.5), 10% (v/v) glycerol, 1 mM dithiothreitol, 0.1 mM Na3VO4 and 0.1 mM EGTA), and stored at −80° C. until used. […] The VEGFR2 cytoplasmic domain, the FGFR1 cytoplasmic domain, and the PDGFRβ cytoplasmic domain were fused with six histidine at the N terminus by the similar method to produce respective recombinant proteins (His6-VEGFR2, His6-FGFR1, and His6-PDGFRβ).
The tyrosine-phosphorylated biotin-poly(GT) was detected using the Homogenous Time-Resolved Fluorescence (HTRF) method (Analytical Biochemistry, 269, 94-104, 1999).
Target sequence in this assay (P08581 956-1390 limits assumed): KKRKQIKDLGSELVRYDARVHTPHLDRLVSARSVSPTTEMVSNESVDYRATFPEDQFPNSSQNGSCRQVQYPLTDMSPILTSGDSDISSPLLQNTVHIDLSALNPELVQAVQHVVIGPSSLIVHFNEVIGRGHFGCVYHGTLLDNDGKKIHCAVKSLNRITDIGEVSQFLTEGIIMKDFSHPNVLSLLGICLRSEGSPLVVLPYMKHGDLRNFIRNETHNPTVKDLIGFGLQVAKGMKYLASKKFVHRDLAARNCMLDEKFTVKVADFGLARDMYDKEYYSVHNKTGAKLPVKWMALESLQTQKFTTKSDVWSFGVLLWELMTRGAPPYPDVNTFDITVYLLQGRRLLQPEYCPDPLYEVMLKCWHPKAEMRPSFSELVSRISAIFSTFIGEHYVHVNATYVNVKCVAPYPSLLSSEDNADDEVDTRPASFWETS

HGFR [3] = molecular target: T1, HGFR; assay: Inhibitory activity against the HGFR autophosphorylation using ELISA; assay type: cell-based; set-up: endogenous in cells; host or cells: MKN-45 human gastric cancer cells; conditions: MKN-45 cells, test substance 1 hr, cell extract
Description: Human gastric cancer cells (MKN-45) were suspended in a 1% FBS-containing RPMI1640 medium (purchased from Sigma). […] After the culture, from each well was removed the supernatant, followed by adding 0.05 ml of a 1% FBS-containing RPMI1640 medium. Then, the well was supplied with 0.05 ml of the test substance dissolved in dimethyl sulfoxide (diluted with a 1% FBS-containing RPMI1640 medium), followed by culturing in a 5% CO2 incubator (37° C.) for 1 hr. From each well was removed the supernatant, and each well was washed with 150 μl of PBS, followed by adding 100 μl of a lysis buffer (50 mM Hepes (pH 7.4), 150 mM NaCl, 10% (v/v) glycerol, 1% Triton X-100, 1.5 mM MgCl2, 1 mM EDTA (pH 8.0), 100 mM NaF, 1 mM PMSF, 10 μg/ml Aprotinin, 50 μg/ml Leupeptin, 1 μg/ml Pepstatin A and 1 mM Na3VO4). The plate was shaken at 4° C. for 1 hr to prepare the cell extract.
To a 96-well plate for ELISA (purchased from COSTAR, Production No. 3369) was added 50 μl of 60 mM bicarbonate buffer (pH 9.6) containing 50 μg/ml of an anti-phosphotyrosine antibody (PY20, purchased from Transduction Laboratory, Production No. P-11120). The plate was incubated at 4° C. overnight.
Each well of the plate prepared in 2. was washed three times with 200 μl of PBS, and supplied with 150 μl of 3% BSA/PBS, followed by incubating at room temperature for 2 hrs. Each well was washed three times with 200 μl of PBS, and supplied with 50 μl of the above cell extract, followed by incubating at 4° C. overnight. After the incubation, each well was washed three times with 250 μl of a washing solution (0.1% BSA, 20 mM Tris-HCl (pH 7.6), 137 mM NaCl, and 0.05% Tween-20), and supplied with 70 μl of anti-HGFR antibody (h-Met(C-12), purchased from Santa Cruz, Production No. sc-10) 2,000-fold diluted with a reaction solution (1% BSA, 20 mM Tris-HCl (pH 7.6), 137 mM NaCl and 0.05% Tween-20), followed by incubating at room temperature for 1 hr. The well was washed three times with 250 μl of the washing solution, and supplied with 70 μl of peroxidase-labelled anti-rabbit IgG antibody (purchased from Cell Signaling, Production No. 7074) 2,000-fold diluted with the reaction solution, followed by incubating at room temperature for 1 hr. […] Each well was supplied with 70 μl of 1 M phosphoric acid, and using the Plate Reader MTP-500 (Corona Electric), the absorbance of the well was instantly determined at a measurement wavelength of 450 nm. While defining the absorbance of a well supplied with the cell extract having no test substance as 100% HGFR autophosphorylation activity, and the absorbance of a well supplied with 50 μl of the lysis buffer as 0% HGFR autophosphorylation activity, the HGFR autophosphorylation activity (%) was calculated for each well.
Target sequence in this assay (P08581 25-1390): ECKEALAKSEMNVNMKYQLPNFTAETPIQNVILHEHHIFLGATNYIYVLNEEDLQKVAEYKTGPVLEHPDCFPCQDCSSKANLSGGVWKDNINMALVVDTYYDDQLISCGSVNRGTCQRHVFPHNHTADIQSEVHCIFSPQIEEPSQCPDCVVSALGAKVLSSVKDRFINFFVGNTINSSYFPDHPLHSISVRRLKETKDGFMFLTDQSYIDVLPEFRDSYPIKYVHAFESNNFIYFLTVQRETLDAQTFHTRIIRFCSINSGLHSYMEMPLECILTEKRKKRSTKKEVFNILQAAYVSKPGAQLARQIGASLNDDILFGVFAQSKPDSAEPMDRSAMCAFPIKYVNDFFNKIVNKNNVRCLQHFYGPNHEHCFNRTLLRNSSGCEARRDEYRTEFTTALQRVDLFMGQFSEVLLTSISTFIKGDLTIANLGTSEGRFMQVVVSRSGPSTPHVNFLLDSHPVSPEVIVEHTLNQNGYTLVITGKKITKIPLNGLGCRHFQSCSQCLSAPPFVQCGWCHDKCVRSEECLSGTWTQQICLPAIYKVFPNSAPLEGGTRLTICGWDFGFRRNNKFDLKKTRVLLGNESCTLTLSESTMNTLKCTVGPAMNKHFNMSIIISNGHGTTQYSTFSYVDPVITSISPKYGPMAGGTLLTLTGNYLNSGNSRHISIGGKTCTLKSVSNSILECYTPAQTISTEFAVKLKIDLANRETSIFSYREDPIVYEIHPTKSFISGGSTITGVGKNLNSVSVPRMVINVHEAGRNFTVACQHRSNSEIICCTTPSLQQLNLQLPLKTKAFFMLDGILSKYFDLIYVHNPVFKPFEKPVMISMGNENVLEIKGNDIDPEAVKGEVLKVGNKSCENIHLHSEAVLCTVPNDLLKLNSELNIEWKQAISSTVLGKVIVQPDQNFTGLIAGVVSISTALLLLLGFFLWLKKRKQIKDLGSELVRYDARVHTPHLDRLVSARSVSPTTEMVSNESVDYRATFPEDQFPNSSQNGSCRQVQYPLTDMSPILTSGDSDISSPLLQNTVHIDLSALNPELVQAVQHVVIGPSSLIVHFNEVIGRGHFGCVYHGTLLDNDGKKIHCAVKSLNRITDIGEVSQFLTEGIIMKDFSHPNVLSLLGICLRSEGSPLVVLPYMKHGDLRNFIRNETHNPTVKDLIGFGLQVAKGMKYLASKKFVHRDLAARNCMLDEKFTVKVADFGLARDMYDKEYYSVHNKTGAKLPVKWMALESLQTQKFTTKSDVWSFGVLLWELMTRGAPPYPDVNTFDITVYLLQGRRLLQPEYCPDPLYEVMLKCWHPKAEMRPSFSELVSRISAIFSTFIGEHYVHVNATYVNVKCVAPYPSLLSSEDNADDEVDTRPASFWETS

SMILES | IC50 [1] [nM] | IC50 (HGFR [2]) [nM] | IC50 (HGFR [3]) [nM]
CN1CCN(C2CCN(C(=O)Nc3cc(Oc4ccc(NC(=O)C5(C(=O)Nc6ccc(F)cc6)CC5)c(F)c4)ccn3)CC2)CC1 [Example 9, N-(2-Fluoro-4-{[2-({[4-(4-methylpiperazin-1-yl)piperidin-1-yl]carbonyl}amino)pyridin-4-yl]oxy}phenyl)-N′-(4-fluorophenyl)cyclopropane-1,1-dicarboxamide] | 17 |  | 
O=C(Nc1cc(Oc2cc(F)c(NC(=O)C3(C(=O)Nc4ccc(F)cc4)CC3)cc2F)ccn1)N1CC(O)C1 [Example 16, N-{2,5-Difluoro-4-[(2-{[(3-hydroxyazetidin-1-yl)carbonyl]amino}pyridin-4-yl)oxy]phenyl}-N′-(4-fluorophenyl)cyclopropane-1,1-dicarboxamide] | 5 | 4 | 8.4
CN1CCC(N(C)C(=O)Nc2cc(Oc3cc(F)c(NC(=O)C4(C(=O)Nc5ccc(F)cc5)CC4)cc3F)ccn2)CC1 [Example 19] | 4.9 | 49 | 11
O=C(Nc1cc(Oc2cc(F)c(NC(=O)C3(C(=O)Nc4ccc(F)cc4)CC3)cc2F)ccn1)N1CC[C@H](O)C1 [Example 22, N-{2,5-Difluoro-4-[(2-{[((S)-3-hydroxypyrrolidin-1-yl)carbonyl]amino}pyridin-4-yl)oxy]phenyl}-N′-(4-fluorophenyl)cyclopropane-1,1-dicarboxamide] | 2.4 | 16 | 4.5
O=C(Nc1cc(Oc2cc(F)c(NC(=O)C3(C(=O)Nc4ccc(F)cc4)CC3)cc2F)ccn1)N1CC[C@@H](O)C1 [Example 25, N-{2,5-Difluoro-4-[(2-{[((R)-3-hydroxypyrrolidin-1-yl)carbonyl]amino}pyridin-4-yl)oxy]phenyl}-N′-(4-fluorophenyl)cyclopropane-1,1-dicarboxamide] | 2.2 | 10 | 3.4
